This note sets out measurements from paper PMC9273884, “Responsive Fluorescent Coumarin–Cinnamic Acid Conjugates for α-Glucosidase Detection” (Frontiers in Chemistry, 2022).

Data set [1] has as its target T1, α-Glucosidase from Saccharomyces cerevisiae (EC 3.2.1.20) (Saccharomyces cerevisiae, UniProt P53341).
T1 construct: purchased Sigma-Aldrich
The data set is described as follows: α-Glucosidase inhibition efficiency test (PNPG substrate, absorbance at 405 nm). The following applies: 0.1 U/mL enzyme, 1 mmol/L PNPG, 37°C, triplicate mean; read-out: IC50 against α-glucosidase. In kind it is biochemical.
Description: All chemicals and solvents were obtained from commercial suppliers without further purification. α-Glucosidase from Saccharomyces cerevisiae (EC 3.2.1.20) was purchased from Sigma-Aldrich. p-Nitrophenyl-α-D-galactopyranoside (PNPG) was obtained from Abcam.
Stock solutions of testing compounds were prepared in DMSO. Enzyme solution of α-glucosidase (2 U/mL) was prepared in 0.1 M PBS buffer. Nitrophenol-α-D-glucoside (PNPG) was dissolved in 0.1 M PBS buffer (pH 6.8) to obtain the substrate solution (4 mM). In total, 10 μL of α-glucosidase (final concentration 0.1 U/mL), 130 μL of PBS buffer, and 10 μL of the sample solution were added into 96-well plates in succession and incubated at 37°C for 10 min. Then 50 μL of substrate solution (PNPG final concentration 1 mmol/L) was added, followed by incubation at 37°C for another 30 min. The enzymatic activity was quantified by measuring the absorbance of the reaction mixture at 405 nm using a multimodel reader. The inhibition rate was calculated using the following equation: Inhibition rate (%) = [(A1−A0)/A0] × 100%, where A1 and A0 are the absorbance values of testing samples and blank control, respectively. The IC50 value was obtained from a plot of the inhibition rate versus the sample concentration curve. The assays were carried out in triplicate and the mean values were given.

Data set [2] addresses T2, α-glucosidase (Saccharomyces cerevisiae, UniProt P53341).
T2 construct: purchased Sigma-Aldrich
In words: Fluorescence titration of the probes with α-glucosidase. In kind it is binding. The following applies: for increase of maximum emission intensity on addition of α-glucosidase: 3.5 μM α-glucosidase, PBS buffer. On the procedure:
(§1) All chemicals and solvents were obtained from commercial suppliers without further purification. α-Glucosidase from Saccharomyces cerevisiae (EC 3.2.1.20) was purchased from Sigma-Aldrich. p-Nitrophenyl-α-D-[…] (PNPG) was obtained from Abcam. Nuclear magnetic resonance (NMR) spectra of new compounds were recorded in DMSO-d 6 using a Bruker Advance 500 MHz spectrometer. High-resolution mass spectrometry (HRMS) was measured on a Thermo Fisher Scientific Q Exactive Orbitrap mass spectrometer. UV–Vis absorption spectra were measured using an Hitachi 3,900 absorption spectrophotometer (Tokyo, Japan). Fluorescence spectra were recorded using an Edinburgh FLS1000 fluorescence spectrophotometer (Edinburgh, UK).
α-Glucosidase protein was titrated to the solution of the testing probe (LD01 or LD02) (10 μM), and the fluorescence emission spectra were recorded from 380 to 700 nm under excitation of 365 nm. The binding constants of Ka were obtained from a double logarithm regression curve ([Wei et al., 2010]): 1g[(I−Io)/Io] = 1gKa + n 1g[G],
where I and I0 are the current and initial fluorescence intensity, respectively, K a is the binding constant, n is the number of binding sites for each α-glucosidase, and [G] is the total concentration of the α-glucosidase protein.

Data set [3] deals with T2, α-glucosidase. The data set is described as follows: Fluorescence competitive binding assay against α-glucosidase/LD02 complex. On the procedure: as §1
The binding complexes of α-glucosidase with LD02 were prepared by adding α-glucosidase (final concentration = 3.5 μM) to the solution of LD02 (10 μM) in 10 mM PBS buffer (pH = 7.4). The dissociation constant of a competitor to α-glucosidase can be determined by titrating it against binding complexes of α-glucosidase with LD02, and can be calculated according to the Cheng–Prusoff equation ([Cheng and Prusoff, 1973]).

The nature of data set [4]: pH-dependent emission (pKa by Henderson-Hasselbalch equation). The settings on record: from emission spectra in PBS buffer pH 3.0 to 8.0, room temperature. In kind it is physicochemical. On the procedure: The emission spectra of the probes in PBS buffer (pH from 3.0 to 8.0) were determined at room temperature. The pKa value was calculated using the Henderson–Hosslbalch equation ([Finikova et al., 2003]): pH = pKa + lg ([A]/[HA]).

The test system of data set [5] is glucose oxidase (GOD), polyphenol oxidase (TKY), pepsin (PEP), Cys, GSH, Lys, Ca2+, Cu2+, Fe3+, Mg2+, Zn2+. In words: Binding selectivity of LD02: emission in the presence of potential competitors. The following applies: 10 μM LD02; enzymes 3.5 μM, small molecules and ions 1 mM; 10 mM PBS pH 7.4. On the procedure: To verify the binding specificity of LD02 toward α-glucosidase, emission spectra of LD02 in the presence of α-glucosidase or various potential competitors such as other enzymes (including glucose oxidase (GOD), polyphenol oxidase (TKY), and pepsin (PEP)), and small molecules of interest (including Cys, GSH, Lys, Ca^2+, Cu^2+, Fe^3+, Mg^2+, and Zn^2+), were collected in 10 mM PBS buffer (pH = 7.4) at room temperature.
FIGURE 5 (A) Fluorescence spectra of LD02 (10 μM) in the presence of various species: α-glucosidase (α-Glu) (3.5 μM), GOD (3.5 μM), TKY (3.5 μM), PEP (3.5 μM), Cys (1 mM), GSH (1 mM), Lys (1 mM), Ca^2+ (1 mM), Cu^2+ (1 mM), Fe^3+ (1 mM), Mg^2+ (1 mM), and Zn^2+ (1 mM) in PBS buffer. (B) The plot of (I-I0)/I0 in A (λex = 365 nm, λem = 457 nm).

“Also recorded” adds a separate entry of the source.

T2 sequence (P53341 whole entry): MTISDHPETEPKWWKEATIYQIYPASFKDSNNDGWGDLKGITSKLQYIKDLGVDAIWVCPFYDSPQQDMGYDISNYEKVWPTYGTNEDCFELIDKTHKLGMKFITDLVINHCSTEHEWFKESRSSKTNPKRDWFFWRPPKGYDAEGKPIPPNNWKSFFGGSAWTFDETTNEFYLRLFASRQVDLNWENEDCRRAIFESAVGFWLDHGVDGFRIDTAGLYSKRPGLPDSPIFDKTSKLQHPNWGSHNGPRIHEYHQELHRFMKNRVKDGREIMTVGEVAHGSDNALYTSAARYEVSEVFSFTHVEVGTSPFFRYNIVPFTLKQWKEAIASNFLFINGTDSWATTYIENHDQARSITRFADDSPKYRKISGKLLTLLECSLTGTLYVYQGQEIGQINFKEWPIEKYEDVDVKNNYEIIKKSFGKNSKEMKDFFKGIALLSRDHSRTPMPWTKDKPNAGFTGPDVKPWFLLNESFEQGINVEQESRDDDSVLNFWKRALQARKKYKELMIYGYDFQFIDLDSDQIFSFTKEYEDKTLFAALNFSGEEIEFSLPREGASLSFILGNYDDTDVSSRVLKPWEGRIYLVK
T1 sequence (P53341 whole entry): as above

As usually defined, the IC50 is the concentration that inhibits the measured activity by half. The Kd is the equilibrium constant for the complex coming apart. Low values mean higher affinity, high ones lower affinity. Broadly, the pKa is the pH at which an ionisable group is half protonated. In the case of `CCN(CC)c1ccc2cc(/C(C)=N/OC(=O)/C=C/c3ccc(Br)cc3)c(=O)oc2c1` [LD01], the IC50 in data set [1] amounted to 4.6 ± 0.5 µM. Besides, on α-glucosidase [2] (10 μM probe), the “increase of maximum emission intensity on addition of α-glucosidase” value is on record as “no obvious emission changes; also recorded: does not have such changes”. Also, the equilibrium dissociation constant (Kd) on α-glucosidase [3] was 6.31 µM. This compound also displayed a pKa in data set [4] of 4.2.
As to `C/C(=N\OC(=O)/C=C/c1ccc(N(C)C)cc1)c1cc2ccccc2oc1=O` [LD02], the IC50 in data set [1] came to 32.5 ± 0.8 µM. The dissociation constant Kd at α-glucosidase [2] is 158 µM. On α-glucosidase [2] (10 μM probe), the “increase of maximum emission intensity on addition of α-glucosidase” value is given as 2.7 times. The “binding ratio (n, number of binding sites) to α-glucosidase” value at α-glucosidase [2] (double logarithm regression, 10 μM probe, PBS) is reported as “approximately 0.5”. Besides, the pKa in data set [4] worked out at 4.6. In addition, in data set [5], the “effect of potential competitors on emission band and intensity (selectivity toward α-glucosidase)” value was “no obvious effect”.
